Target: T1, sGC α1/β1 heterodimer (Homo sapiens, UniProt Q02108+Q02153)
T1 construct: expressed in transfected cells
T1 sequence (Q02108 1-690 partner): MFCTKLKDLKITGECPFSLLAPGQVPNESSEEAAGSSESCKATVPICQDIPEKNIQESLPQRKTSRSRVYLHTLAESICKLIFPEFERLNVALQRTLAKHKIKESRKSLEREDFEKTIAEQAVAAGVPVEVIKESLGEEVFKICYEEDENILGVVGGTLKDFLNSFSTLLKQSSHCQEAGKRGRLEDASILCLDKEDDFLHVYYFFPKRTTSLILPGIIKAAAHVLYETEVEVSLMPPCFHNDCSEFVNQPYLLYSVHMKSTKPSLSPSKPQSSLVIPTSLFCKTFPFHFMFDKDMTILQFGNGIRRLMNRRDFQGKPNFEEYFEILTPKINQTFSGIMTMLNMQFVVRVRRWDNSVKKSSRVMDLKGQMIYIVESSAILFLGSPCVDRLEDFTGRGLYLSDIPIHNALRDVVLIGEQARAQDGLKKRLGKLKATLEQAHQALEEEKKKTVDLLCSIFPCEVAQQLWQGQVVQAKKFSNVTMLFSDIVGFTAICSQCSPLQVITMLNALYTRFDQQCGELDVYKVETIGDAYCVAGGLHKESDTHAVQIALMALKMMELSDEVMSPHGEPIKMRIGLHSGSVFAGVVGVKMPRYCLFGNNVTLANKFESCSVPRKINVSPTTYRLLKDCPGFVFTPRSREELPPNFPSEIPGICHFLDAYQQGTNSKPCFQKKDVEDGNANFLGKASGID
T1 sequence (Q02153 1-619): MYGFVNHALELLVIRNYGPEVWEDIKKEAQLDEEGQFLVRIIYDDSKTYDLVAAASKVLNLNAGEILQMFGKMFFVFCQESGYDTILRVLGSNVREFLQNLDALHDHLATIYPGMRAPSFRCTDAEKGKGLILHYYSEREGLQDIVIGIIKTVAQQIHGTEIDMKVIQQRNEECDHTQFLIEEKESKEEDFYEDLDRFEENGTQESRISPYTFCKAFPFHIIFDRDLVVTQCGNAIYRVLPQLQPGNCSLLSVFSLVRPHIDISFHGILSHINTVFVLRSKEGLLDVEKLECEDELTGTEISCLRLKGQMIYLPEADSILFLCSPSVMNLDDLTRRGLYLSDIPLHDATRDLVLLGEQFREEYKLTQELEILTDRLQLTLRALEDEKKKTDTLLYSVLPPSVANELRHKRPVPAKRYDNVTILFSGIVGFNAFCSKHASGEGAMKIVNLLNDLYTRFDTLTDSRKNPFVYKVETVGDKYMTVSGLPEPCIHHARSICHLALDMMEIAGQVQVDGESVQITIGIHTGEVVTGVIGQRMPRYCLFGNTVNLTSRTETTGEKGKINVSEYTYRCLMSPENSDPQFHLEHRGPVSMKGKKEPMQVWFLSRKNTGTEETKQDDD
Assay: Cell-Based sGC Functional Assay (CASA Assay)
Settings: CHO-K1/sGC cells, with ODQ incubation (10 μM), 1 hr at 37° C., intracellular cGMP by HTRF; for EC50: read-out: IP (nM) (inflection point); for fold induction: read-out: maximum fold induction over DMSO control
Experimental: Cell-Based sGC Functional Assay (CASA Assay)
Rationale: sGC is a heme-containing enzyme that converts GTP (guanosine 5′-triphosphate) to secondary messenger cGMP. Increases in cGMP levels affect several physiological processes including vasorelaxation through multiple downstream pathways. […] Heme-independent activators (HIAs) preferentially activate sGC containing a ferric heme group, which can be generated upon incubation with 1H-(1,2,4)oxadiazolo(4,3-a) quinoxalin-1-one (ODQ). To determine the effect of sGC activators on enzyme activity, the CASA assay was developed to monitor the generation of cGMP in a cell line that stably expresses the heterodimeric sGC protein.
Methods: A CHO-K1 cell line stably expressing the sGC αl/β1 heterodimer was generated using a standard transfection protocol. CHO-K1 cells were transfected with plasmids pIREShyghsGCα1 and pIRESneo-hsGCβ1 simultaneously using FUGENE reagent. Clones that stably express both subunits were selected with hygromycin and neomycin for ˜2 weeks. Clone #7 was chosen for the assay and was designated CHO-K1/sGC. CHO-K1/sGC cells were maintained in F-K12 medium containing 10% heat-inactivated Fetal Bovine Serum (FBS), 100 μg/mL penicillin/streptomycin, 0.5 mg/mL hygromycin and 0.25 mg/mL G418. On the day of the assay, cells were harvested in EBSS (Earle's balanced salt solution) Assay Buffer (EAB) containing 5 mM MgCl2, 10 mM HEPES (4-(2-hydroxyethyl)piperazine-1-ethanesulfonic acid) and 0.05% BSA (bovine serum albumin) and cell density was adjusted to 2×10^6/mL with EAB. IBMX (3-isobutyl-1-methylxanthin, 0.5 mM) was added to inhibit degradation of cGMP. Compounds were diluted from DMSO stock solutions and added to the assay at a final DMSO concentration of 1%. Cells were incubated with compounds in the presence and absence of 10 μM of 1H-(1,2,4)oxadiazolo(4,3-a) quinoxalin-1-one (ODQ) for 1 hr at 37° C. At the end of the incubation period, the reaction was terminated and the cells were lysed. The level of intracellular cGMP was determined using an HTRF-based assay kit (CisBio, 62GM2PEC), which detects the displacement of a fluorescence labeled cGMP from its specific antibody. The amount of cGMP was plotted against compound concentration in PRISM software and the inflection point (IP) and maximum fold induction over DMSO control were derived from the plot.

Compound	EC50 [nM]	fold induction
O=C(O)c1cnn(-c2cccc(-c3ccccc3OCc3ccc(C4CCN(CC(F)(F)F)CC4)cc3)n2)c1C(F)(F)F [Example 1, 1-[6-[2-[[4-[1-(2,2,2-Trifluoroethyl)-4-piperidinyl]phenyl]methoxy]phenyl]-2-pyridinyl]-5-(trifluoromethyl)-1H-pyrazole-4-carboxylic acid]	51.5	281
Cc1cc(C2CCN(CC(F)(F)F)CC2)ccc1COc1ccccc1-c1cccc(-n2ncc(C(=O)O)c2C(F)(F)F)n1 [Example 3, 1-(6-(2-((2-Methyl-4-(1-(2,2,2-trifluoroethyl)piperidin-4-yl)benzyl)oxy)phenyl)pyridin-2-yl)-5-(trifluoromethyl)-1H-pyrazole-4-carboxylic acid]	10.4	127
COC(=O)N1CCC(c2ccc(COc3c(F)cccc3-c3cccc(-n4ncc(C(=O)O)c4C(F)(F)F)n3)cc2)CC1 [Example 5, 1-{6-[3-fluoro-2-({4-[1-(methoxycarbonyl)piperidin-4 yl]benzyl}oxy)phenyl]pyridin-2-yl}-5-(trifluoromethyl)-1H-pyrazole-4-carboxylic acid]	26.9	244
O=C(O)c1cnn(-c2cccc(-c3cccc(Cl)c3OCc3ccc(C4CCN(C(=O)C5CC5)CC4)cc3)n2)c1C(F)(F)F [Example 84, 1-(6-(3-chloro-2-((4-(1-(cyclopropylcarbonyl)piperidin-4-yl)benzyl)oxy)phenyl)pyridin-2-yl)-5-(trifluoromethyl)-1H-pyrazole-4-carboxylic acid]	5.4	50

Molecules with a lower EC50, results first:

EC50 [nM]	fold induction	Compound
2.4	189	O=C(O)c1cnn(-c2cccc(-c3cc(F)cc(Cl)c3OCc3ccc(C4CCN(CC(F)(F)F)CC4)cc3)n2)c1C(F)(F)F [Example 2, 1-(6-(3-Chloro-5-fluoro-2-((4-(1-(2,2,2-trifluoroethyl)piperidin-4-yl)benzyl)oxy)phenyl)pyridin-2-yl)-5-(trifluoromethyl)-1H-pyrazole-4-carboxylic acid]
< 0.5	216	CCC(=O)N1CCC(c2ccc(COc3c(-c4cccc(-n5ncc(C(=O)O)c5C(F)(F)F)n4)cccc3C(F)(F)F)cc2)CC1 [Example 76, 1-(6-(2-((4-(1-propionylpiperidin-4-yl)benzyl)oxy)-3-(trifluoromethyl)phenyl)pyridin-2-yl)-5-(trifluoromethyl)-1H-pyrazole-4-carboxylic acid]
1.5	151	COC(=O)N1CCC(c2ccc(COc3c(-c4cccc(-n5ncc(C(=O)O)c5C(F)(F)F)n4)cccc3C(F)(F)F)cc2)CC1 [Example 77, 1-(6-(2-((4-(1-(methoxycarbonyl)piperidin-4-yl)benzyl)oxy)-3-(trifluoromethyl)phenyl)pyridin-2-yl)-5-(trifluoromethyl)-1H-pyrazole-4-carboxylic acid]
2.6	170	O=C(O)c1cnn(-c2cccc(-c3cccc(C(F)(F)F)c3OCc3ccc(C4CCN(C(=O)C5CC5)CC4)cc3)n2)c1C(F)(F)F [Example 81, 1-(6-(2-((4-(1-(cyclopropylcarbonyl)piperidin-4-yl)benzyl)oxy)-3-(trifluoromethyl)phenyl)pyridin-2-yl)-5-(trifluoromethyl)-1H-pyrazole-4-carboxylic acid]

Reference: US8507512B2, “Soluble guanylate cyclase activators” (Merck Sharp & Dohme Corp., priority 2009, dated 2013)
